The values that follow come from paper PMC11219833, “Design and radiosynthesis of class-IIa HDAC inhibitor with high molar activity via repositioning the ^18F-radiolabel” (Scientific Reports, 2024).

The test system of test [1] is endogenous class-I/IIb HDACs in HT-29 cells. In words: Whole-cell assay of endogenous class-I/IIb HDAC inhibition in HT-29 cells (Boc-Lys-Ac substrate). Conditions: Homo sapiens, class-I/IIb selective substrate Boc-Lys-Ac. It counts as cell-based. The source says:
(§1) The next step was to determine the specificity, selectivity and potency of NT376 to class-IIa HDACs against endogenous class-IIa HDACs in HT-29 cells using the class-distinguishing substrates similar to our previous work[23].
(§2) We utilized the well-established fluorogenic assay to screen NT376 against recombinant human HDAC isoforms and against endogenous HDACs in HT-29 cells. The class IIa HDAC fluorogenic assay functions in a two-step process: first, the class IIa HDAC removes the trifluoroacetate (TFA) from TFA-lysine substrate to generate free lysine which is recognized by trypsin and releases a fluorescent fluorophore (intact substrate is not recognized by trypsin) that can be detected using microplate reader. The IC50 was determined using nonlinear fit curves (GraphPad Prism) (% HDAC activity inhibition vs. compound concentration). […]
(§3) The cell-based HDAC inhibitor assays were performed in HT-29 cells (ATCC). […] The cells were then washed with HDAC Assay Buffer (RPMI 1640 media without phenol red, Gibco, containing 0.1% FBS), re-collected by centrifugation, resuspended in HDAC Assay Buffer, and counted. […] Fluorescent counts were read with a microplate reader at an excitation wavelength of 360 nm and emitted light was detected at 460 nm.

Test [2] addresses T1, recombinant human HDAC1 (Homo sapiens, UniProt Q13547).
T1 construct: purchased BPS Bioscience, Inc
Put plainly: HDAC isoform inhibition fluorogenic assay (BPS Bioscience kit). The settings on record: class-I. The format is biochemical. The source says:
(§4) We utilized the well-established fluorogenic assay to screen NT376 against recombinant human HDAC isoforms and against endogenous HDACs in HT-29 cells. The class IIa HDAC fluorogenic assay functions in a two-step process: first, the class IIa HDAC removes the trifluoroacetate (TFA) from TFA-lysine substrate to generate free lysine which is recognized by trypsin and releases a fluorescent fluorophore (intact substrate is not recognized by trypsin) that can be detected using microplate reader. The IC50 was determined using nonlinear fit curves (GraphPad Prism) (% HDAC activity inhibition vs. compound concentration). The IC50 measurements were performed in triplicates and experiments were repeated twice with known HDAC inhibitors NT160 and SAHA used as positive and […] controls respectively.
(§5) Preparation of NT376: A 1.0 mM stock solution of NT376 was prepared in 100% DMSO. 11-dilutions of NT376 were then prepared in HDAC assay buffer with the DMSO adjusted to 2.5% final concentration in the assay medium.
(§6) NT376 was screened against recombinant human HDACs isoforms using the commercially available HDACs enzyme assay kits (BPS Bioscience, Inc.). The experiments were performed according to the manufacturer protocol.

The target of test [3] is T2, recombinant human HDAC5 (Homo sapiens, UniProt Q9UQL6).
T2 construct: purchased BPS Bioscience, Inc
The description is as above. The format is biochemical.
Text: as §4, §5, §6

The target of test [4] is T3, recombinant human HDAC11 (Homo sapiens, UniProt Q96DB2).
T3 construct: purchased BPS Bioscience, Inc
T3 sequence (Q96DB2 1-347): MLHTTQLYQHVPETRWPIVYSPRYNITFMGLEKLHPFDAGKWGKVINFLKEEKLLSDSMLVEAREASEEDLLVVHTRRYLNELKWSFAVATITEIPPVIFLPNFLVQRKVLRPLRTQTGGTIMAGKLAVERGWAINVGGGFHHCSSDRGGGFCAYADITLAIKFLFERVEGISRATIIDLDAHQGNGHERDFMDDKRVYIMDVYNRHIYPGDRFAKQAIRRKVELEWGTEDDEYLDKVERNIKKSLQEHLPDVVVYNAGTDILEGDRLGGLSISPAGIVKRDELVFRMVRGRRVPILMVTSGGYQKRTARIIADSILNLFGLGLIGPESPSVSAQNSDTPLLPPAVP
The test is described as above. It counts as biochemical. The settings on record: class-IV.
Text: as §4, §5, §6

For test [5], the target named is T4, recombinant human HDAC4 (Homo sapiens, UniProt P56524).
T4 construct: purchased BPS Bioscience, Inc
The description is as above. The format is biochemical.
Text: as §4, §5, §6

Test [6] has as its target T5, recombinant human HDAC6 (Homo sapiens, UniProt Q9UBN7).
T5 construct: purchased BPS Bioscience, Inc
T5 sequence (Q9UBN7 1-1215): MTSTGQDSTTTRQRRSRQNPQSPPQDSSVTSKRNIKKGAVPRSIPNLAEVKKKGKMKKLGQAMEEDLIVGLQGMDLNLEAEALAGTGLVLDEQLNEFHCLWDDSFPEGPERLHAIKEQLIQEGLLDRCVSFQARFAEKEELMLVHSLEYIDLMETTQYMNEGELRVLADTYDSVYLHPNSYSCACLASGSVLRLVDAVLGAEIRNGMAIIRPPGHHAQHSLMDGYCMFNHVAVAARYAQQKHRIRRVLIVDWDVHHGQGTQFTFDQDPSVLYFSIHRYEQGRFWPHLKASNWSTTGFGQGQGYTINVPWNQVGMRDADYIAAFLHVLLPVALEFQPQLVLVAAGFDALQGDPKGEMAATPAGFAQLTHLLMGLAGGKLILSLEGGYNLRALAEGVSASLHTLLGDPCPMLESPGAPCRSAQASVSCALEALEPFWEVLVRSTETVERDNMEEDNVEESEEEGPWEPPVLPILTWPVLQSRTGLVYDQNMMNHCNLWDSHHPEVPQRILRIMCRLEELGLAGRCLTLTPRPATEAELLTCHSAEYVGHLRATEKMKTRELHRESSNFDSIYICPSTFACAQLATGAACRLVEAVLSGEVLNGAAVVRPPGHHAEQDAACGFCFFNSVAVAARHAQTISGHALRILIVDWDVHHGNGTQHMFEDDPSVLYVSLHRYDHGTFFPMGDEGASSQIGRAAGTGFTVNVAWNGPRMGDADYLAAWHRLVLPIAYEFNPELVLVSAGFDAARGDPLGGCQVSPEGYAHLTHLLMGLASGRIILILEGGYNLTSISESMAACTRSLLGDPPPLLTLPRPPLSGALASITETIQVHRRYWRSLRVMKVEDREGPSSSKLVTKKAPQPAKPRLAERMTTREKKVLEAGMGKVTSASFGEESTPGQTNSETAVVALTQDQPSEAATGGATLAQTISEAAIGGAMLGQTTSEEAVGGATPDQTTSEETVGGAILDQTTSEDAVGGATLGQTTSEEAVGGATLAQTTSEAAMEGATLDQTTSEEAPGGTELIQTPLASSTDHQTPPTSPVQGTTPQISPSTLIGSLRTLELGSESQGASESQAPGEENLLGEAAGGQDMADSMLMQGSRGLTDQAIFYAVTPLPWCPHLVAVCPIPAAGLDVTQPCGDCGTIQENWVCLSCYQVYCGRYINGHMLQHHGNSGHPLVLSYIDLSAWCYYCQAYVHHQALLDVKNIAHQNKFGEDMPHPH
The description is as above. The format is biochemical. Conditions: class-IIb.
Text: as §4, §5, §6

Test [7] has as its system endogenous class-IIa HDACs in HT-29 cells. Put plainly: Whole-cell assay of endogenous class-IIa HDAC inhibition in HT-29 cells (Boc-Lys-TFA substrate). Conditions: Homo sapiens, class-IIa selective substrate Boc-Lys-TFA, ± SEM. The format is cell-based.
Text: as §1, §2, §3

T1 sequence (Q13547 whole entry): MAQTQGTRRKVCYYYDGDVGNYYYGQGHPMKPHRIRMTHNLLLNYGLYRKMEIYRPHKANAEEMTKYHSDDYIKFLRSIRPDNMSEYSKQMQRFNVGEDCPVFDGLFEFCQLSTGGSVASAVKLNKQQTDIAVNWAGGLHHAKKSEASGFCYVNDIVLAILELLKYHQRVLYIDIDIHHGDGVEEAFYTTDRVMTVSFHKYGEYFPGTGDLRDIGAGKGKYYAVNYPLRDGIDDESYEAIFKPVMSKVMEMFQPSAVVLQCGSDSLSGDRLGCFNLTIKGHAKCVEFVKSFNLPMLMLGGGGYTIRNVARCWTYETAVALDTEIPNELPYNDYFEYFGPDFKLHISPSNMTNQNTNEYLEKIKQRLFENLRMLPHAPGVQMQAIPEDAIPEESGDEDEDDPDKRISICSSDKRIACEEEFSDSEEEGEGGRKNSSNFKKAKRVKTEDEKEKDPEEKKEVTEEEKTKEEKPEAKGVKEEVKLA
T2 sequence (Q9UQL6 whole entry): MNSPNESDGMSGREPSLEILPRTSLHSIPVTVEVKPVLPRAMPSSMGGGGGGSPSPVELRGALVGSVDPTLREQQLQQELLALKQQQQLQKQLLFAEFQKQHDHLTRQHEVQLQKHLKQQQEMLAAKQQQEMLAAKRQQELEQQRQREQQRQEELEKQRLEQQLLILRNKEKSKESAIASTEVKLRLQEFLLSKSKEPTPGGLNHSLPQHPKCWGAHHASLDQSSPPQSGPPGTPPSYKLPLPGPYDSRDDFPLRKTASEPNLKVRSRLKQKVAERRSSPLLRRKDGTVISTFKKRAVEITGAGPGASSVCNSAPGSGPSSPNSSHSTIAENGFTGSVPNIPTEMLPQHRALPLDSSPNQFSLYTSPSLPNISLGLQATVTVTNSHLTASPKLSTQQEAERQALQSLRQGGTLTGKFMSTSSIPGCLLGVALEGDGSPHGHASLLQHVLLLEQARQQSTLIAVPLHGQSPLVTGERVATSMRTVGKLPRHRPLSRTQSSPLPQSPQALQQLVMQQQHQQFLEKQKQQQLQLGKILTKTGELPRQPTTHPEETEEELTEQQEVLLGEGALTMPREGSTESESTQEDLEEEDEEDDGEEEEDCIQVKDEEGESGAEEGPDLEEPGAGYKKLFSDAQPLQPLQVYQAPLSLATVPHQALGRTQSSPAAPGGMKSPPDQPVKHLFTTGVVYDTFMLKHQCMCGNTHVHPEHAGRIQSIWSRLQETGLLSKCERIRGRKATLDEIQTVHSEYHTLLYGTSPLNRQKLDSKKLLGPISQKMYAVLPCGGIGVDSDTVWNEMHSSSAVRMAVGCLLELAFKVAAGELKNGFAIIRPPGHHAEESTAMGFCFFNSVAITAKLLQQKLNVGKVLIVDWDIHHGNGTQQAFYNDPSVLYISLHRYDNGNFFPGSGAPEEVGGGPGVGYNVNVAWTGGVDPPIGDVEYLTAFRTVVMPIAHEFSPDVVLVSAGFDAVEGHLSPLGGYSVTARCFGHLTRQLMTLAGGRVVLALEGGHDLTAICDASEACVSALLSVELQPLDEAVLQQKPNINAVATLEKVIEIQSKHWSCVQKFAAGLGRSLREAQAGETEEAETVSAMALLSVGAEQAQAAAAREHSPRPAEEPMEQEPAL
T4 sequence (P56524 whole entry): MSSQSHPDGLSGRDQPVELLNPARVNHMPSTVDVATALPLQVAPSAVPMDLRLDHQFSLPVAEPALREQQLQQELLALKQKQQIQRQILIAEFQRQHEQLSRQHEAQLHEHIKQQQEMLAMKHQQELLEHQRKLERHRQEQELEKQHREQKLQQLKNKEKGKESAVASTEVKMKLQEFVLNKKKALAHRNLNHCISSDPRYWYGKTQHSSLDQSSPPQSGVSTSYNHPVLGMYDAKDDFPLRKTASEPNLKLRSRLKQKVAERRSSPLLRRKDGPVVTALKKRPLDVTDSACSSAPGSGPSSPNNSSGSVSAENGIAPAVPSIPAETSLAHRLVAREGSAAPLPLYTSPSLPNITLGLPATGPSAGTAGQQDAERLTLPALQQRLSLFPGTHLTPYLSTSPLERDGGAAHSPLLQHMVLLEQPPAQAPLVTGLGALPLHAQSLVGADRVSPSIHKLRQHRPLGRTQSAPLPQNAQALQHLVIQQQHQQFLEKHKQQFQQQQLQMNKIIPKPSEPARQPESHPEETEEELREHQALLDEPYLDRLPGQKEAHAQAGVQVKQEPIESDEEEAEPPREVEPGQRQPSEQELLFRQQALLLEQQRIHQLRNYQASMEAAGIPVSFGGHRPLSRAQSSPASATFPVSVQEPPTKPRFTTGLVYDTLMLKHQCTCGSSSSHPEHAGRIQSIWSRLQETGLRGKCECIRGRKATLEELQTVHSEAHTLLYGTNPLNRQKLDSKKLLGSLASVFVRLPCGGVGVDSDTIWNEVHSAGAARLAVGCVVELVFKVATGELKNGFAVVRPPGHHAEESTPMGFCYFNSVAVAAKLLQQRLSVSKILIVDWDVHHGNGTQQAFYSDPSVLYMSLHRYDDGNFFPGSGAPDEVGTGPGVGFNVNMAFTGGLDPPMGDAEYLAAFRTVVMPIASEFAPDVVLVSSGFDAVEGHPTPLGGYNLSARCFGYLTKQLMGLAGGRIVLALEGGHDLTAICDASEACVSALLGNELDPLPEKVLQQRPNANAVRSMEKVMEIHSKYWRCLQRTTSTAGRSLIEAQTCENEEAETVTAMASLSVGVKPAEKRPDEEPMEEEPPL

As a reminder, the IC50 is the point on the concentration scale where inhibition reaches its midpoint. In the case of `C[C@H](CN(C)Cc1ccccc1)NC(=O)c1ccc(-c2noc(C(F)(F)F)n2)cc1F` [NT376, (R)-N-(1-(benzyl(methyl)amino)propan-2-yl)-2-fluoro-4-(5-(trifluoromethyl)-1,2,4-oxadiazol-3-yl)benzamide], the IC50 in test [1] is above 4000 nM; in test [2], 1480 nM; in test [3] it was 2.85 nM; in test [4] it was 4850 nM; in test [5] it was 1.26 nM; in test [6] it was 5030 nM. Moreover, it took 32 ± 7.6 nM to reach half-maximal inhibition in test [7] (IC50).
